Results reported in patent publication US20250230435A1, “METHODS OF TREATMENT OF GNAQ AND GNA11 DRIVEN DISEASE” (THE FRANCIS CRICK INSTITUTE LIMITED, priority 2022, published 2025).
“Also recorded” adds a separate entry of the source.

Key:
Assay type in all cases: cell-based, human
TIME GNAQWT cells [1] = assay: Fluo-8 AM assay, thrombin-induced intracellular calcium, GNAQ WT cells; details: 1 μM for 20 minutes, thrombin 1 U/ml
Experimental: (§1) FIG. 3—CRAC channel inhibition and variant-specific siRNAs rescue aberrant calcium signalling in variant cells. A-B. TIME-GNAQ^WT (A) or −GNAQ^R183Q (B) were loaded with intracellular calcium probe Fluo-8 and treated for 20 minutes with vehicle or 1 μM […]. Following treatment, cells were stimulated with thrombin 1 U/ml and fluorescence recorded for 300 seconds. The graphs represent an avarage of three independent experiments performed in technical quadruplicates. C. Means +/−SD deviation of areas under the curve calculated from three experiments summarised in […]. Statistical comparisons were performed by two-tailed paired t test (n.s=not statistically significant, * p=0.0284). […] IP1 concentration was measured 48 hours after transfection and shown as mean +/−SD of three independent experiments. […] TIME-GNAQ p.(R183Q); NFAT-Luc were transfected with non-target siRNA (siSCRA) or two siRNAs for specific silencing of the variant GNAQ allele (siGNAQmut 1 and 3) and luciferase reporter activity was measured 48 hours after transfection in complete medium or after four hours of starvation, shown as mean +/−SD of % change of cells transfected with mock in three independent experiments. […]

UPMM1 UM cell line = assay: Fluo-8 assay, LTD4-induced intracellular calcium in UPMM1; details: UPMM1, Fluo-8, 1, 3 or 10 μM, leukotriene D4 stimulation
Experimental: (§2) FIG. 10—GNAQ and CRAC inhibition in uveal melanoma cells. […] UPMM1 cells were non-transfected or transfected with non-target control siRNA (siSCRA) or with 2 distinct GNAQR183Q-mutant specific siRNAs (siGNAQmut3 and siGNAQmut6) and expression of the mutant allele was measured by using GNAQR183Q-mutant specific primers previously validated (forward primer: […] (SEQ ID NO:25); reverse primer: […] (SEQ ID NO:26). B. Transfection with siRNAs silencing GNAQ mutant allele reduced GPCR ligand-induced calcium intra-cellular accumulation. Cells loaded with Fluo-8 calcium marker were stimulated by the GPCR ligand leukotriene D4 (LTD4) and fluorescence was recorded over the time. C. […] Cells loaded with Fluo-8 calcium probe were treated by CM4620 1, 3 or 10 μM, stimulated by the GPCR ligand leukotriene D4 (LTD4) and fluorescence was recorded over the time.

TIME GNAQR183Q cells [2] = assay: In vitro angiogenesis (endothelial tube formation) assay, GNAQ variant cells; details: 1 μM, in presence of thrombin 0.3 U/ml, vs vehicle
Description: (§3) FIG. 8—In vitro angiogenesis is disrupted by mutant GNAQ and rescued by CRAC channel inhibition. (A) Representative images captured with EVOS Floid Imaging System following Calcein AM staining during in vitro endothelial cell tube formation of TIME cells stably expressing either GNAQ WT or GNAQ R183Q. […] Statistical significance calculated using two-tailed unpaired t-test on three independent experiments (**** p<0.0001). […] Results shown as mean of a technical triplicate for each of 4 independent experiments. Statistical analysis performed by two-tailed paired t-test on four independent experiments (n.s=not statistically significant, * p=0.0125). […] Results shown as mean +/−SD of three independent experiments, and statistical analysis performed by two-tailed paired t-test (n.s=not statistically significant, * p=0.04).
(§4) TIME endothelial cell models were used to assess angiogenesis using a standard in vitro angiogenesis assay. […] Furthermore, thrombin GPCR activation disrupted angiogenesis in GNAQR183Q more than in GNAQWT (FIG. 8C).

TIME GNAQR183Q cells [3] = assay: Fluo-8 AM assay, thrombin-induced intracellular calcium, GNAQ variant cells; details: 1 μM for 20 minutes, thrombin 1 U/ml
Experimental: as §1

TIME GNAQWT cells [4] = assay: In vitro angiogenesis (endothelial tube formation) assay, GNAQ WT cells; details: 1 μM, in presence of thrombin 0.3 U/ml, vs vehicle
Description: as §3, §4

GNAQR183Q mutant allele = assay: Expression of GNAQR183Q mutant allele in UPMM1, mutant-specific primers; details: UPMM1 cells
Experimental: as §2

[5] = system: GNA11 c.547C>T, p.(R183C) allele; assay: Western blot knock-down of HA-tagged Gα11 in TIME cells expressing wild-type or p.R183C; details: 25 nM siRNA, 24 h after transfection, TIME cells stably expressing wild-type or p.R183C HA-tagged Gα11
Experimental: (§5) FIG. 5—Designing and testing siRNA specific for GNAQ c.548G>A, p.(R183Q) A. Schematic representation of the 6 siRNAs designed to target specifically GNAQ c.548G>A allele. B. TIME cells stably expressing either wild-type or p.R183Q HA-tagged Gαq were transfected by 50 nM siRNAs targeting GNAQ c.548G>A, p.(R183Q) allele and analysed by western-blot 24 h after transfection. […] C. (average of three experiments, * p<0.05). D. Schematic representation of the 6 siRNAs designed to target specifically GNA11 c.547C>T p.(R183C). E. TIME cells stably expressing either wild-type or p.R183C HA-tagged Gα11 were transfected by 25 nM siRNAs targeting GNA11 c.547C>T, p.(R183C) allele and analysed by western-blot 24 h after transfection. […] (average of three experiments, * p<0.05).
(§6) hTERT-immortalised microvascular endothelial cells (TIME-ATCC CRL-4025TM, “TIME” cells) and their transgenic derivatives were maintained in EBMTM-2 Endothelial Cell Growth Basal Medium-2 (Lonza CC-3156), supplemented with EGMTM-2 BulletKit (Lonza CC-3162) and 3% fetal bovine serum (Gibco).
(§7) TIME cells were transduced with lentiviral vectors to induce stable expression of HA-tagged forms of GNAQ WT, GNAQ p.(R183Q), GNA11 WT, GNA11 p.(R183C) cDNAs (FIG. 4), and we confirmed presence of the mutations in the genomic DNA by Sanger sequencing (FIG. 4B). […]

[6] = system: GNAQ c.548G>A, p.(R183Q) allele; assay: Western blot knock-down of HA-tagged Gαq in TIME cells expressing wild-type or p.R183Q; details: 50 nM siRNA, 24 h after transfection, TIME cells stably expressing wild-type or p.R183Q HA-tagged Gαq
Experimental: as §5, §6, §7

Cc1cccc(F)c1C(=O)Nc1cnc(-c2cc3c(cc2Cl)OC(F)(F)O3)cn1 [CM4620]
thrombin-induced calcium signalling, GNAQ WT cells (TIME GNAQWT cells [1]): limited effects
GPCR ligand (LTD4)-induced accumulation of intracellular calcium (UPMM1 UM cell line): reduced the GPCR ligand-induced accumulation of intracellular calcium
tubule formation (total length of the network), GNAQR183Q (TIME GNAQR183Q cells [2]): improved tubule formation
thrombin-induced calcium signalling, GNAQ-variant cells (TIME GNAQR183Q cells [3]): inhibits the variant cell response; also recorded: markedly rescuing the prolonged calcium intracellular peak
tubule formation (total length of the network), GNAQWT (TIME GNAQWT cells [4]): no statistically significant difference; also recorded: not GNAQWT

AGAGUUCAAGUCCCCACCA[dT][dT] (antisense UGGUGGGGACUUGAACUCU; dTdT overhangs, chemistry not fully specified) [siGNAQmut #6, siRNA to GNAQ c.548G>A p.(R183Q)]
expression of the GNAQR183Q mutant allele (GNAQR183Q mutant allele): reduced expression of the mutant allele

CUGCGGGUCUGCGUGCCCA[dT][dT] (antisense UGGGCACGCAGACCCGCAG; dTdT overhangs, chemistry not fully specified) [siGNA11mut #4, siRNA to GNA11 c.547C>T p.(R183C)]
specific knock-down of variant Gα11 protein over wild-type (western blot) [5]: specific knock-down of variant protein over wild-type counterparts

CUUAGAGUUCAAGUCCCCA[dT][dT] (antisense GGGGACUUGAACUCUAAGC; dTdT overhangs, chemistry not fully specified) [siGNAQmut #3, siRNA to GNAQ c.548G>A p.(R183Q)]
specific knock-down of variant Gαq protein over wild-type (western blot) [6]: specific knock-down of variant protein over wild-type counterparts
expression of the GNAQR183Q mutant allele (GNAQR183Q mutant allele): reduced expression of the mutant allele

UGCUUAGAGUUCAAGUCCC[dT][dT] (antisense GGGACUUGAACUCUAAGCA; dTdT overhangs, chemistry not fully specified) [siGNAQmut #1, siRNA to GNAQ c.548G>A p.(R183Q)]
specific knock-down of variant Gαq protein over wild-type (western blot) [6]: specific knock-down of variant protein over wild-type counterparts
